US10077289B2, “Cyclosporins modified on the MeBmt sidechain by heterocyclic rings” (priority 2015, dated 2018)
pIC50, pKi: −log10 of the molar value. Values after ≈ are worked out from the molar mass of the structure shown. Where two headings read alike, the source gives them in different places.

Assays:
[1] = biological target: Human recombinant cyclophilin A (Cyp A) (Homo sapiens (Human), UniProt P62937); test: Protease-free PPIase assay
Method: Protease-Free PPIase Assay
The protease-free PPIase assay measures the rate of cis to trans conversion of a peptide substrate catalyzed by the enzyme cyclophilin A. Addition of a cyclophilin A inhibitor (e.g., a test compound) slows the catalyzed rate and a Ki value is obtained.
35 mM HEPES pH 7.8, filtered through a 0.2 μm filter. 50 μM DTT was added prior to use each day and then the buffer was stored on ice.
Human recombinant cyclophilin A (Cyp A) (Sigma C3805) enzyme was diluted to 1 μM with enzyme dilution buffer (20 mM HEPES pH 7.8, 40% glycerol, 50 μM DTT and 1 μM BSA) and stored at −20° C.
Succinimide-Ala-Ala-Pro-Phe-p-nitroanilide (SUC-AAPF-pNA) (from Bachem AG, L-1400), 20 mg/ml prepared in 0.5 M LiCl in trifluoroethanol.
The temperature is monitored by the use of a temperature probe. To prevent UV degradation of test compounds, the light below 290 nm was blocked using a glass slide in the light path. 1.5 ml of the assay buffer was put into a 3 ml quartz cuvette and cooled to 10.0±0.1° C. while stirring (vigorous but not so fast as to produce cavitation). The inhibitor was diluted in 100% DMSO, and then added to the assay to a maximum final concentration of 0.5% DMSO in the assay. A blank spectrum was obtained, then 3 μL of enzyme was added (2 nM final concentration) and then 3 μL substrate (60 μM final concentration) added. The absorbance was measured at 330 nm for 300 s or 500 s for blank runs (NOTE: the substrate must be added in one quick injection and the measurements started immediately to minimize mixing errors).
A first order rate equation was fitted to the absorbance data, for each concentration of inhibitor, to obtain the rate constant (the first 10 to 15 seconds were excluded as mixing causes errors in this portion of curve). The catalytic rate was calculated from the enzymatic rate constant minus the background rate constant. An exponential curve was generated using the catalytic rate constants versus the inhibitor concentration to obtain the Ki value for the inhibitor. The Ki value is indicative of the binding affinity between the test compound and cyclophilin A.

[2] = biological target: calcineurin/cyclophilin A (Homo sapiens (Human), UniProt P62937+P63098+Q08209); test: Calcineurin Phosphatase (CaN) Assay (+CypA); assay type: biochemical; details: in the presence of Cyp A, 1:1 complex with inhibitor; read-out: Calcineurin Phosphatase (CaN) Assay (+CypA) IC50
Description: Calcineurin Phosphatase (CaN) Assay
The calcineurin phosphatase assay is a means for estimating the immunosuppressive potential of a test compound. Calcineurin is a serine-threonine protein phosphatase that on activation dephosphorylates members of the nuclear factor of activated T cells (NFAT), which are important in T lymphocyte activation.
To investigate the immunosuppressive potential of exemplary compounds of Formula I, which are cyclosporin analogs, their ability to inhibit calcineurin activity was measured in the presence and absence of Cyp A.
The CaN assay kit used is based on a colorimetric assay for measuring calcineurin phosphatase activity, and it is commercially available (Enzo Life Sciences and Calbiochem). Calmodulin is also required for calcineurin activity and RII phosphopeptide is used as an efficient peptide substrate for calcineurin. […] The detection of free phosphate released is based on the classic Malachite green assay.
Enzo Life Sciences CaN Assay Kit: BML-AK804
Malachite Green: BIOMOL Green™ reagent
Calmodulin (Human, recombinant): was thawed on ice, diluted 1:50 with 2× assay buffer, and then stored on ice.
Calcineurin: was thawed quickly, stored on ice immediately, diluted 1:12.5 with 1× assay buffer, and then stored on ice.
R-II Substrate: 915 μL ultrapure water (UPW) was added to the 1.5 mg vial substrate to give a final concentration of 0.75 mM.
Inhibitors: 2.5 mM inhibitor in 100% DMSO.
Cyp A: recombinant human CypA (Sigma C3805), 1 mg/ml; Recombinant 6-His tagged CypA prepared by the University of Edinburgh was also used.
Inhibitor dilutions: inhibitor compounds were diluted in UPW in polypropylene low-binding 96 well plates at 5× the final assay concentration.
Assay Setup: using the half area 96 well plates supplied with the kit, 10 μl UPW was added to duplicate wells to provide the non-inhibited control. 10 μl of the inhibitor or the inhibitor/Cyp A complex was added to the appropriate sample wells. 25 μl of the 2× assay buffer with CaM was added to all wells, then 5 μl of CaN was added to all wells (40 U per well final concentration) except duplicate ‘no calcineurin blank’ wells to which 5 μL 1× assay buffer was added. The assay plate was placed in an oven at 30° C. for 15 minutes to equilibrate to the reaction temperature. The reaction was started by the addition of 10 μl RII-peptide (0.15 mM final concentration). The reaction was allowed to proceed at 30° C. for a time period in which the reaction is linear for about 60 minutes. The reaction was then terminated by adding 100 μl of the Malachite Green reagent. The color was allowed to develop for 15-30 minutes at room temperature before the absorbance at 620 nm was measured using a plate reader (Molecular Devices—SpectraMax M5). The data were analyzed by subtracting ‘no Calcineurin blank’ from all the absorbance readings and plotting the background corrected absorbances against Log10 inhibitor concentration. A sigmoidal-dose response curve was fitted to the data using GraphPad Prism Software.
It exerts its immunosuppressive activity by binding to cyclophilin A to form a complex, which then binds to calcineurin and thereby inhibits calcineurin activity.

[3] = Water Solubility Assay (measured in pH 7.8 buffer); assay type: physicochemical; details: kinetic from dmso stock, 25 °C
Method: Water Solubility Assay (Measured in pH 7.8 Buffer)
The aqueous solubility of a compound of Formula I in buffer (pH 7.8) was measured by recording the onset of precipitation of the compound as a function of increasing concentration. The onset of precipitation, if it occurred, was detected by an increase in absorbance at 650 nm.
Assay Buffer: 35 mM HEPES pH 7.8
Stock solutions of Control and Test Compounds: 10 mM in 100% DMSO.
10 mM stock solutions of control and test compounds were prepared in 100% DMSO.
Assay buffer (247.5 μl) was placed into flat bottomed transparent 96-well plate. For blank samples DMSO (2.5 μl) was added. For test and control samples 2.5 μl of the appropriate DMSO dilution stocks were added to the appropriate well. All test and control compounds were performed in triplicate.
The plates were sealed with adhesive plate seal and shaken at 250 rpm at 25° C. for 18 h on a plate shaker. After incubation the plate seals were taken off and any bubbles observed in wells removed. The plates were read on a SpectraMaxM5 with a 5 s pre-shake at 650 nm. Data files were transferred to the appropriate worksheet and the solubility range of the compounds was calculated from the data. The values shown in the Tables indicate the concentration in μM (micromolar) at which the compound remains in solution.

[4] = read-out: Protease-free PPIase Assay Ki, human recombinant Cyp A, 10 °C
[5] = 35 mM HEPES buffer pH 7.8, aqueous buffer, 35 mM HEPES pH 7.8, 1% DMSO, 18 h, read-out: Water Solubility Assay, concentration at which the compound remains in solution

SMILES | pKi [1, 4] | pIC50 [2] | solubility at 18 h [3, 5] | pKi [1] | solubility at 18 h ([3]; pH 7.8, aqueous buffer)
CC[C@H]1NC(=O)[C@@H]([C@H](O)[C@H](C)Cc2nccn2Cc2ccccn2)N(C)C(=O)[C@@H](C(C)C)N(C)C(=O)[C@@H](CC(C)C)N(C)C(=O)[C@@H](CC(C)C)N(C)C(=O)[C@H](C)NC(=O)[C@@H](C)NC(=O)[C@@H](CC(C)C)N(C)C(=O)[C@@H](C(C)C)NC(=O)[C@H](CC(C)C)N(C)C(=O)[C@@H](C)N(C)C1=O [Compound 5, [(2S,3R,4R)-3-Hydroxy-4-methyl-2-(methylamino)-5-(1-(pyridin-2-yl-methyl)-1H-imidazol-2-yl)-pentanoic acid]^1 [(R)-methyl-Sar]^3cyclosporin A] | 8.39 | 5.07 | > 100 µM |  | 
CC[C@H]1NC(=O)[C@@H]([C@H](O)[C@H](C)Cc2nccn2CCCO)N(C)C(=O)[C@@H](C(C)C)N(C)C(=O)[C@@H](CC(C)C)N(C)C(=O)[C@@H](CC(C)C)N(C)C(=O)[C@H](C)NC(=O)[C@@H](C)NC(=O)[C@@H](CC(C)C)N(C)C(=O)[C@@H](C(C)C)NC(=O)[C@H](CC(C)C)N(C)C(=O)[C@@H](C)N(C)C1=O [Compound 6, [(2S,3R,4R)-3-Hydroxy-5-(1-(3-hydroxypropyl)-1H-imidazol-2-yl)-4-methyl-2-(methylamino)pentanoic acid]^1 [(R)-methyl-Sar]^3 cyclosporin A] |  | 5.32 |  | 8.29 | > 100 µM
CC[C@H]1NC(=O)[C@@H]([C@H](O)[C@H](C)Cc2nccn2CCc2cccnc2)N(C)C(=O)[C@@H](C(C)C)N(C)C(=O)[C@@H](CC(C)C)N(C)C(=O)[C@@H](CC(C)C)N(C)C(=O)[C@H](C)NC(=O)[C@@H](C)NC(=O)[C@@H](CC(C)C)N(C)C(=O)[C@@H](C(C)C)NC(=O)[C@H](CC(C)C)N(C)C(=O)[C@@H](C)N(C)C1=O [Compound 7, [(2S,3R,4R)-3-Hydroxy-4-methyl-2-(methylamino) 5-(1-(pyridin-3-yl-ethyl)-1H-imidazol-2-yl)pentanoic acid]^1 [(R)-methyl-Sar]^3 cyclosporin A] | 8.25 | 5.11 | > 100 µM |  | 
CC[C@H]1NC(=O)[C@@H]([C@H](O)[C@H](C)Cc2nc3ccccc3[nH]2)N(C)C(=O)[C@@H](C(C)C)N(C)C(=O)[C@@H](CC(C)C)N(C)C(=O)[C@@H](CC(C)C)N(C)C(=O)[C@H](C)NC(=O)[C@@H](C)NC(=O)[C@@H](CC(C)C)N(C)C(=O)[C@@H](C(C)C)NC(=O)[C@H](CC(C)C)N(C)C(=O)[C@@H](C)N(C)C1=O [Compound 9, [(2S,3R,4R)-1-(1H-Benzimidazol-2-yl)-3-hydroxy-4-methyl-2-(methylamino)pentanoic acid]^1 [(R)-methyl-Sar]^3 cyclosporin A] |  | < 5.00 |  | 8.64 | 25 to 50 µM (≈ 32.3 to 64.6 µg/mL)
CC[C@H]1NC(=O)[C@@H]([C@H](O)[C@H](C)CCCc2cccnc2)N(C)C(=O)[C@@H](C(C)C)N(C)C(=O)[C@@H](CC(C)C)N(C)C(=O)[C@@H](CC(C)C)N(C)C(=O)[C@H](C)NC(=O)[C@@H](C)NC(=O)[C@@H](CC(C)C)N(C)C(=O)[C@@H](C(C)C)NC(=O)[C@H](CC(C)C)N(C)C(=O)[C@@H](C)N(C)C1=O [Compound 11, [(2S,3R,4S)-3-Hydroxy-4-methyl-2-(methylamino)-7-(pyridin-3-yl)-heptanoic acid]^1 [(R)-methyl-Sar]^3 cyclosporin A] |  | 5.60 |  | 8.25 | 50 to 75 µM (≈ 64.1 to 96.1 µg/mL)
CC[C@H]1NC(=O)[C@@H]([C@H](O)[C@H](C)CCCc2ccccn2)N(C)C(=O)[C@@H](C(C)C)N(C)C(=O)[C@@H](CC(C)C)N(C)C(=O)[C@@H](CC(C)C)N(C)C(=O)[C@H](C)NC(=O)[C@@H](C)NC(=O)[C@@H](CC(C)C)N(C)C(=O)[C@@H](C(C)C)NC(=O)[C@H](CC(C)C)N(C)C(=O)[C@@H](C)N(C)C1=O [Compound 12, [(2S,3R,4R)-3-Hydroxy-4-methyl-2-(methylamino)-7-(pyridin-2-yl)-heptanoic acid]^1 [(R)-methyl-Sar]^3 cyclosporin A] |  | 5.85 |  | 8.42 | 50 to 75 µM (≈ 64.1 to 96.1 µg/mL)
CC[C@H]1NC(=O)[C@@H]([C@H](O)[C@H](C)CCCc2csc(C)n2)N(C)C(=O)[C@@H](C(C)C)N(C)C(=O)[C@@H](CC(C)C)N(C)C(=O)[C@@H](CC(C)C)N(C)C(=O)[C@H](C)NC(=O)[C@@H](C)NC(=O)[C@@H](CC(C)C)N(C)C(=O)[C@@H](C(C)C)NC(=O)[C@H](CC(C)C)N(C)C(=O)[C@@H](C)N(C)C1=O [Compound 13, [(2S,3R,4R)-3-Hydroxy-4-methyl-2-(methylamino)-7-(2-methyl-thiazol-4-yl)-heptanoic acid]^1 [(R)-methyl-Sar]^3 cyclosporin A] |  | 5.84 |  | 8.49 | 25 to 50 µM (≈ 32.5 to 65.1 µg/mL)
CC[C@H]1NC(=O)[C@@H]([C@H](O)[C@H](C)CCCc2ccncc2)N(C)C(=O)[C@@H](C(C)C)N(C)C(=O)[C@@H](CC(C)C)N(C)C(=O)[C@@H](CC(C)C)N(C)C(=O)[C@H](C)NC(=O)[C@@H](C)NC(=O)[C@@H](CC(C)C)N(C)C(=O)[C@@H](C(C)C)NC(=O)[C@H](CC(C)C)N(C)C(=O)[C@@H](C)N(C)C1=O [Compound 15, [(2S,3R,4R)-3-Hydroxy-4-methyl-2-(methylamino)-7-(pyridin-4-yl)-heptanoic acid]^1 [(R)-methyl-Sar]^3 cyclosporin A] |  | 5.80 |  | 8.60 | 50 to 75 µM (≈ 64.1 to 96.1 µg/mL)
